Assay results as given in patent publication US12636285B2 (ViiV Healthcare Company, priority 2019, dated 2026).
Counter-ions that a name gives are not always drawn.

Legend:
[1] = Drug interaction studies with oral rilpivirine
[2] = Solubility in water; assay type: physicochemical
Description: The cabotegravir tablet contains cabotegravir, as cabotegravir sodium. […] The tablet film-coating contains hypromellose, polyethylene glycol, and titanium dioxide.

[3] = Drug interaction studies with oral cabotegravir; settings: cabotegravir 30 mg once daily; No Effect = 1.00
[4] = Established and other potentially significant drug interactions (Table 5); settings: trial-based or predicted
[5] = rilpivirine 150 mg once daily, No Effect = 1.00
[6] = rilpivirine 25 mg once daily, No Effect = 1.00
[7] = rilpivirine 75 mg once daily, No Effect = 1.00

In the case of `CC(C)c1c(C(=O)Nc2ccc(O)cc2)c(-c2ccccc2)c(-c2ccc(F)cc2)n1CC[C@@H](O)C[C@@H](O)CC(=O)O` [4-hydroxy-atorvastatin], the “Geometric Mean Ratio of coadministered drug AUC with/without EDURANT” value [1, 5] was 1.23 and the “Geometric Mean Ratio of coadministered drug Cmax with/without EDURANT” value [1, 5] was 1.28.
For `CO[C@H]1/C=C/O[C@@]2(C)Oc3c(C)c(O)c4c(O)c(c(/C=N/N5CCN(C)CC5)c(O)c4c3C2=O)NC(=O)/C(C)=C\C=C\[C@H](C)[C@H](O)[C@@H](C)[C@@H](O)[C@@H](C)[C@H](O)[C@@H]1C` [25-desacetylrifampin], the “Geometric Mean Ratio of coadministered drug AUC with/without EDURANT” value [1, 5] was 0.91 and the “Geometric Mean Ratio of coadministered drug Cmax with/without EDURANT” value [1, 5] was 1.00.
In the case of `CC(=O)Nc1ccc(O)cc1` [Acetaminophen], the “Geometric Mean Ratio of coadministered drug AUC with/without EDURANT” value [1, 5] was 0.91 and the “Geometric Mean Ratio of coadministered drug Cmax with/without EDURANT” value [1, 5] was 0.97.
In the case of `C[C@H]1CO[C@@H]2Cn3cc(C(=O)NCc4ccc(F)cc4F)c(=O)c(O)c3C(=O)N12` [Cabotegravir sodium], the solubility in water [2] was “slightly soluble”.
In the case of `O=c1[nH]cnc2c1ncn2[C@H]1CC[C@@H](CO)O1` [Didanosine], the “Geometric Mean Ratio of coadministered drug AUC with/without EDURANT” value [1, 5] was 1.12 and the “Geometric Mean Ratio of coadministered drug Cmax with/without EDURANT” value [1, 5] was 0.96.
With `C[C@H]1O[C@@H](O[C@H]2[C@@H](O)C[C@H](O[C@H]3[C@@H](O)C[C@H](O[C@H]4CC[C@@]5(C)[C@H](CC[C@@H]6[C@@H]5C[C@@H](O)[C@]5(C)[C@@H](C7=CC(=O)OC7)CC[C@]65O)C4)O[C@@H]3C)O[C@@H]2C)C[C@H](O)[C@@H]1O` [Digoxin] the “Geometric Mean Ratio of coadministered drug AUC with/without EDURANT” value [1, 6] was 0.98 and the “Geometric Mean Ratio of coadministered drug Cmax with/without EDURANT” value [1, 6] was 1.06.
In the case of `C#C[C@]1(O)CC[C@H]2[C@@H]3CCc4cc(O)ccc4[C@H]3CC[C@@]21C` [Ethinyl estradiol], the “Geometric Mean Ratio of coadministered drug AUC with/without EDURANT” value [1, 6] was 1.14, the “Geometric Mean Ratio of coadministered drug Cmax with/without EDURANT” value [1, 6] was 1.17 and the “Geometric Mean Ratio of coadministered drug Cmin with/without EDURANT” value [1, 6] was 1.09. The “Geometric Mean Ratio of AUC of coadministered drug with/without cabotegravir” value [3] was 1.02, the “Geometric Mean Ratio of Cmax of coadministered drug with/without cabotegravir” value [3] was 0.92 and the “Geometric Mean Ratio of Cτ or C24 of coadministered drug with/without cabotegravir” value [3] was 1.00.
With `CC(=O)N1CCN(c2ccc(OCC3COC(Cn4ccnc4)(c4ccc(Cl)cc4Cl)O3)cc2)CC1` (stereo not drawn) [Ketoconazole] the “Geometric Mean Ratio of coadministered drug AUC with/without EDURANT” value [1, 5] was 0.76, the “Geometric Mean Ratio of coadministered drug Cmax with/without EDURANT” value [1, 5] was 0.85 and the “Geometric Mean Ratio of coadministered drug Cmin with/without EDURANT” value [1, 5] was 0.34.
In the case of `C#C[C@]1(O)CC[C@H]2[C@@H]3CCC4=CC(=O)CC[C@@H]4[C@H]3CC[C@@]21CC` [Levonorgestrel], the “Geometric Mean Ratio of AUC of coadministered drug with/without cabotegravir” value [3] was 1.12, the “Geometric Mean Ratio of Cmax of coadministered drug with/without cabotegravir” value [3] was 1.05 and the “Geometric Mean Ratio of Cτ or C24 of coadministered drug with/without cabotegravir” value [3] was 1.07.
With `CN(C)C(=N)N=C(N)N` [Metformin] the “Geometric Mean Ratio of coadministered drug AUC with/without EDURANT” value [1, 6] was 0.97 and the “Geometric Mean Ratio of coadministered drug Cmax with/without EDURANT” value [1, 6] was 1.02.
For `CCC(=O)C(CC(C)N(C)C)(c1ccccc1)c1ccccc1` (stereo not drawn) [Methadone], the “rilpivirine Cmin with/without coadministered drug” value ([1]; rilpivirine 25 mg once daily, comparison based on historic controls) was “↔^b” and the “Effect on Concentration” value ([4]; with narcotic analgesic methadone) was “↓Methadone”.
With `Cc1ncc2n1-c1ccc(Cl)cc1C(c1ccccc1F)=NC2` [Midazolam] the “Geometric Mean Ratio of AUC of coadministered drug with/without cabotegravir” value [3] was 1.10 and the “Geometric Mean Ratio of Cmax of coadministered drug with/without cabotegravir” value [3] was 1.09.
For `CCCc1nn(C)c2c(=O)[nH]c(-c3cc(S(=O)(=O)N4CCNCC4)ccc3OCC)nc12` [N-desmethyl-sildenafil], the “Geometric Mean Ratio of coadministered drug AUC with/without EDURANT” value [1, 7] was 0.92 and the “Geometric Mean Ratio of coadministered drug Cmax with/without EDURANT” value [1, 7] was 0.90.
For `C#C[C@]1(O)CC[C@H]2[C@@H]3CCC4=CC(=O)CC[C@@H]4[C@H]3CC[C@@]21C` [Norethindrone], the “Geometric Mean Ratio of coadministered drug AUC with/without EDURANT” value [1, 6] was 0.89, the “Geometric Mean Ratio of coadministered drug Cmax with/without EDURANT” value [1, 6] was 0.94 and the “Geometric Mean Ratio of coadministered drug Cmin with/without EDURANT” value [1, 6] was 0.99.
For `Cc1nnc(C(=O)NC(C)(C)c2nc(C(=O)NCc3ccc(F)cc3)c(O)c(=O)n2C)o1` [Raltegravir], the “Geometric Mean Ratio of coadministered drug AUC with/without EDURANT” value [1, 6] was 1.09, the “Geometric Mean Ratio of coadministered drug Cmax with/without EDURANT” value [1, 6] was 1.10 and the “Geometric Mean Ratio of coadministered drug Cmin with/without EDURANT” value [1, 6] was 1.27.
In the case of `CO[C@H]1/C=C/O[C@@]2(C)Oc3c(C)c(O)c4c(c3C2=O)C2=NC3(CCN(CC(C)C)CC3)NC2=C(NC(=O)/C(C)=C\C=C\[C@H](C)[C@H](O)[C@@H](C)[C@@H](O)[C@@H](C)[C@H](OC(C)=O)[C@@H]1C)C4=O` [Rifabutin], the “Effect on Concentration” value ([4]; with antimycobacterial rifabutin) was “↔Rifabutin”.
For `CO[C@H]1/C=C/O[C@@]2(C)Oc3c(C)c(O)c4c(O)c(c(/C=N/N5CCN(C)CC5)c(O)c4c3C2=O)NC(=O)/C(C)=C\C=C\[C@H](C)[C@H](O)[C@@H](C)[C@@H](O)[C@@H](C)[C@H](OC(C)=O)[C@@H]1C` [Rifampin], the “Geometric Mean Ratio of coadministered drug AUC with/without EDURANT” value [1, 5] was 0.99 and the “Geometric Mean Ratio of coadministered drug Cmax with/without EDURANT” value [1, 5] was 1.02.
With `CCCc1nn(C)c2c(=O)[nH]c(-c3cc(S(=O)(=O)N4CCN(C)CC4)ccc3OCC)nc12` [Sildenafil] the “Geometric Mean Ratio of coadministered drug AUC with/without EDURANT” value [1, 7] was 0.97 and the “Geometric Mean Ratio of coadministered drug Cmax with/without EDURANT” value [1, 7] was 0.93.
In the case of `CC(C)OC(=O)OCOP(=O)(CO[C@H](C)Cn1cnc2c(N)ncnc21)OCOC(=O)OC(C)C` [Tenofovir disoproxil fumarate], the “Geometric Mean Ratio of coadministered drug AUC with/without EDURANT” value [1, 5] was 1.23, the “Geometric Mean Ratio of coadministered drug Cmax with/without EDURANT” value [1, 5] was 1.19 and the “Geometric Mean Ratio of coadministered drug Cmin with/without EDURANT” value [1, 5] was 1.24.
In the case of Lopinavir/ritonavir, the “Geometric Mean Ratio of coadministered drug AUC with/without EDURANT” value [1, 5] was 0.99, the “Geometric Mean Ratio of coadministered drug Cmax with/without EDURANT” value [1, 5] was 0.96 and the “Geometric Mean Ratio of coadministered drug Cmin with/without EDURANT” value [1, 5] was 0.89. The “Geometric Mean Ratio of rilpivirine AUC with/without coadministered drug” value [1, 5] was 0.99, the “Geometric Mean Ratio of rilpivirine Cmax with/without coadministered drug” value [1, 5] was 0.96 and the “Geometric Mean Ratio of rilpivirine Cmin with/without coadministered drug” value [1, 5] was 0.89.
